Measured values published in paper PMC10693550, “Programmable de novo designed coiled coil-mediated phase separation in mammalian cells” (Nature Communications, 2023).
No end group written: not given here.

How the values were obtained:
FKBP/FRB [1] = test: Rapamycin-induced assembly of single-chain condensates from FKBP/FRB-fused APPAP halves, HEK293T cells; format: cell-based, H.sapiens; conditions: 1 μM rapamycin; HEK293T cells expressing Cit-APPAP-gs-FKBP and FRB-APPAP-gs; none with DMSO even 1 hour post-addition
Description: (§1) Our final goal was to engineer new properties into condensates and to provide regulation of CC-LLPS assembly or disassembly. […] To introduce chemically regulated assembly, we incorporated FKBP into the first chain and FRB domain into the second chain of the split protein. Upon the addition of rapamycin, those two domains heterodimerize and thus extend the length of the polypeptide.
(§2) Fig. 6 Design of chemical regulation of CC-LLPS. a One polypeptide chain of a condensate-forming pair BFP-(S2)3(S4)3-gs, was separated into two chains, each with 3 CC domains BFP-(S2)3-gs and (S4)3-gs. […] Scale bars, 10 μm.

FKBP/FRB [2] = test: Rapamycin-induced condensate assembly, split two-chain system with FKBP and FRB domains, NIH-3T3 cells; format: cell-based, H.sapiens; conditions: 1 μM rapamycin; NIH-3T3 cells expressing Cit(S1-S3)3-SAH, BFP(S2)3-gsFKBP and FRB(S4)3-gs; none with vehicle control
Description: as §1, §2

FKBP/FRB [3] = test: Rapamycin-regulated split TEVp protease dissolution of condensates, HEK293T cells; format: cell-based, H.sapiens; conditions: 1 μM rapamycin; HEK293T cells with TEVp site in one condensate-forming chain and rapamycin-regulated split TEVp
Description: as §2

complementary peptide = test: Isothermal titration calorimetry (ITC) of orthogonal CC peptide pairs; format: binding; conditions: 50 mM Tris pH 7.5, 150 mM NaCl, 1 mM TCEP, uncertainty from Monte Carlo simulation of the fit
Method: MicroCal PEAQ-ITC (Malvern) was used to measure the equilibrium dissociation constant (Kd) of orthogonal CC pairs. A 40-µl injection syringe was filled with the peptide solution (1 mM P5f, P13f; 5.6 mM S1h or 5.4 mM S3h) in 50 mM Tris pH of 7.5, 150 mM NaCl, and 1 mM TCEP. The samples were injected into an ITC cell (volume 200 µl) filled with a complementary peptide (100 µM P6f or P14f and 560 µM S2h or 540 µM S4h) in a matching buffer through a 19-step process. The injection volumes were 2 µl and were spaced 120 s apart, except for the first priming injection of 0.4 µl with 150 s spacing. Raw thermograms were integrated with the software NITPIC[83], interaction analysis was done with SEDPHAT[84], and titration curves were visualized with a companion GUSSI software. Monte Carlo simulation for non-linear regression, aligning the model function with experimental values 1000 times was used to obtain uncertainties in the fitted model.
Supplementary Figure 2: Binding analysis between the weak 3-heptad and strong 4-heptad CC forming segment using isothermal titration calorimetry (ITC). a) For peptide pair S1h + S2h peptide concentration in 40 µl injection syringe was 5.6 mM for S1h and concentration of complementary peptide S2h in ITC cell (volume 200 µl) was 560 […]
concentration in 40 µl injection syringe was 5.4 mM S3h and concentration of complementary peptide S4h in ITC cell (volume 200 µl) was 540 µM.
± 0.5 kcal/mol. For peptide pair c) P5f + P6f and d) P13f + P14f, which are 4-heptad CC.
Peptide concentration in 40 µl injection syringe was 1 mM for P5f and P13f and concentration […]
± 0.5 µM and ΔH -13.7 +- 0.6 kcal/mol and d) Kd 2.3 ± 0.2 µM and ΔH -14.7 ± 0.6 kcal/mol.
All the peptides were dissolved in a matching buffer 50 mM Tris pH of 7.5, 150 mM NaCl, […]
(1 picture or pasted object on this page, not shown here)

S2h = biological target: T1, S2h; test: ITC; MicroCal PEAQ-ITC; syringe peptide (1 mM P5f, P13f; 5.6 mM S1h or 5.4 mM S3h) injected into the cell with the complementary peptide (100 µM P6f or P14f; 560 µM S2h or 540 µM S4h); 50 mM Tris pH 7.5, 150 mM NaCl, 1 mM TCEP; concentrations of the S peptides not stated; conditions: both partners purified
T1 chain: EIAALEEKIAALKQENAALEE

P6f = biological target: T2, P6f; test: as above; conditions: both partners purified
T2 chain: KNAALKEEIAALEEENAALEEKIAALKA

P14f = biological target: T3, P14f; test: as above; conditions: both partners purified
T3 chain: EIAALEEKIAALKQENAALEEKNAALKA

S4h = biological target: T4, S4h; test: as above; conditions: both partners purified
T4 chain: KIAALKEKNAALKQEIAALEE

[4] = 3-heptad Sh pairs, 5.6 mM S1h or 5.4 mM S3h in syringe into 560 µM S2h or 540 µM S4h in cell
[5] = 4-heptad pairs, 1 mM P5f or P13f in syringe into 100 µM P6f or P14f in cell

CO[C@H]1C[C@@H]2CC[C@@H](C)[C@@](O)(O2)C(=O)C(=O)N2CCCC[C@H]2C(=O)O[C@H]([C@H](C)C[C@@H]2CC[C@@H](O)[C@H](OC)C2)CC(=O)[C@H](C)/C=C(\C)[C@@H](O)[C@@H](OC)C(=O)[C@H](C)C[C@H](C)/C=C/C=C/C=C/1C [rapamycin, Rapamycin]
condensate formation after addition (in words) (FKBP/FRB [1]): after a few minutes
time after addition at which condensates started to form (FKBP/FRB [2]): 20 min
dissolution of condensates after addition (in words) (FKBP/FRB [3]): dissolution of condensates after a few minutes

EIAALEEENAALEQKIAALKE [S3h-S4h]
Kd (complementary peptide; [4]): 340 ± 70 µM

ENAALEEKIAALKEKNAALKEEIAALEA [P5f-P6f]
Kd (complementary peptide; [5]): 5.9 ± 0.5 µM

KIAALKEEIAALEQKNAALKE [S1h-S2h]
Kd (complementary peptide; [4]): 2300 ± 1500 µM

KIAALKEEIAALEQKNAALKEENAALEA [P13f-P14f]
Kd (complementary peptide; [5]): 2.3 ± 0.2 µM

B1: S1h (peptide)
chain: KIAALKEEIAALEQKNAALKE
Kd (S2h): 2300 ± 1500 µM

B2: P5f (peptide)
chain: ENAALEEKIAALKEKNAALKEEIAALEA
Kd (P6f): 5.9 ± 0.5 µM

B3: P13f (peptide)
chain: KIAALKEEIAALEQKNAALKEENAALEA
Kd (P14f): 2.3 ± 0.2 µM

B4: S3h (peptide)
chain: EIAALEEENAALEQKIAALKE
Kd (S4h): 340 ± 70 µM
